# Source: patent US6339151B1, “Enzyme catalyzed therapeutic agents” (NewBiotics, Inc., priority 1998, dated 2002)
# Experiments:
# [1] = test system: Skin Fibroblast (DET551); assay: Alamar Blue Assay; assay type: cell-based
# [2] = test system: Breast (MCF7); assay: Alamar Blue Assay; assay type: cell-based; conditions: Homo sapiens
# [3] = test system: Normal Cells; assay: Alamar Blue Assay, mean over normal cells; assay type: cell-based; conditions: mean of the three normal cell types; read-out: mean IC50 (X̄)
# [4] = test system: Breast (MDA 468); assay: Alamar Blue Assay; assay type: cell-based
# [5] = test system: Sarcoma (Saos 2); assay: Alamar Blue Assay; assay type: cell-based; conditions: Homo sapiens
# [6] = test system: Lung Epithelium (W138); assay: Alamar Blue Assay; assay type: cell-based
# [7] = test system: Colon Epithelium (CCD18co); assay: Alamar Blue Assay; assay type: cell-based; conditions: Homo sapiens, CCD-18Co
# [8] = test system: Tumor Cells; assay: Alamar Blue Assay, mean over tumor cells; assay type: cell-based; conditions: mean of the three tumor cell lines; read-out: mean IC50 (X̄)
# [9] = test system: CCD18co (normal colon epithelium); assay: Crystal violet cell proliferation assay; assay type: cell-based, human; conditions: for IC50: Homo sapiens, CCD-18Co
# Protocol: (§1) Two cell lines, H630R10 (Copur, et al. (1995)) and normal colon epithelial cells, CCD18co (ATCC) were used in these assays. The H630P (Copur et al. (1995)) cell line was selected for resistance to 10 μM 5-FU to give rise to H630R10. The characterization of these cell lines which expresses an elevated level of the TS enzyme. A normal colon epithelial cell type CCD18co (available from the ATCC) was used for comparison with H630R10 for sensitivity to test compounds.
# (§2) The ability of the test compounds to block proliferation of cells was determined by the crystal violet procedure (Sugarman et al. (1985) and Antelman et al. (1995)).
# (§3) Compounds were dissolved in dimethyl sulfoxide to a concentration of 1M. They were further diluted as necessary into DMEM cell culture medium, and subsequently into the first wells of the 96 Well microtiter plate. Each concentration was tested in triplicate on the target cell line. Compound concentrations from 1 μM to 3000 μM were tested. Cells were incubated with compound for 72 hours, the plates were washed, and the cells fixed with methanol and stained with crystal violet as described in Sugarman et al. ([…]) and Antelman, et al. (1995).
# [10] = test system: H630R10 (colon cancer cell line); assay: Crystal violet cell proliferation assay; assay type: cell-based, human; conditions: for IC50: Homo sapiens
# Protocol: as §1, §2, §3
# [11] = test system: Metastatic Carcinoma (Rx) breast cells; conditions: 10 samples; cited from earlier work
# [12] = test system: Metastatic Carcinoma (UT) breast cells; conditions: 4 samples; cited from earlier work
# [13] = test system: Primary Carcinoma (UT) breast cells; conditions: 19 samples; cited from earlier work
# [14] = Table 6, H630R10, 72 hours, standard error less than 20%
smiles,measurement,setting,value
"O=c1[nH]cc(F)c(=O)[nH]1 [5-Fluorouracil, 5-fluorouracil]",IC50,[1],1.1 µM
same,IC50,[2],0.61 µM
same,IC50,[3],0.57 µM
same,IC50,[4],0.4 µM
same,IC50,[5],11.3 µM
same,IC50,[6],0.4 µM
same,IC50,[7],0.2 µM
same,IC50,[8],4.1 µM
"O=c1[nH]c(=O)n([C@H]2C[C@H](O)[C@@H](CO)O2)cc1F [Compound 5-FUdR, 5-fluoro-2′-deoxyuridine]",IC50,"[9]; Table 7, CCD18co (normal colon epithelium), representative data from several assays, triplicate wells",9.5 µM
same,fold more sensitive CCD18co than H630-R10,[9]; normal colon epithelial CCD18co vs H630-R10 colon tumor cells,approximately 18 fold
same,IC50,[10]; [14],170 ± 2.4 µM
same,IC50,"[10]; Table 7, H630R10 (colon cancer cell line), representative data from several assays, triplicate wells",170 µM
"O=c1[nH]c(=O)n([C@H]2C[C@H](O)[C@@H](CO)O2)cc1/C=C/Br [BVDU, (E)-5-(2-bromovinyl)-2′-deoxyuridine]",IC50,"[9]; Table 6, CCD18co, 72 hours, standard error less than 20%",2540 ± 58.2 µM
same,activity in the proliferation assay,"[10]; CCD18co and H630R10, Table 6 line 2",little activity
same,difference in sensitivity of the two cell lines,[10]; CCD18co vs H630R10,no significant difference
same,IC50,[10]; [14],2880 ± 54.5 µM
"COc1cccc2c1C(=O)c1c(O)c3c(c(O)c1C2=O)C[C@@](O)(C(=O)CO)C[C@@H]3O[C@H]1C[C@H](N)[C@H](O)[C@H](C)O1 [Doxorubicin, doxorubicin]",Average IC50,[11],0.0198 ± 0.0127 µg/mL
same,Average IC50,[12],0.036 ± 0.0263 µg/mL
same,Average IC50,[13],0.0114 ± 0.0068 µg/mL
